Laboratory results published in ChEMBL document CHEMBL3774317, “Design and synthesis of novel tamoxifen analogues that avoid CYP2D6 metabolism” (Eur J Med Chem, 2016).

Columns and labels:
[1] = Cytotoxicity against human UACC62 cells assessed as cell growth at 10^-6 M after 48 hrs by SRB assay; type: functional; conditions: UACC-62, 48 h, read-out: Activity
[2] = tested on: NCI-H226; experiment: Cytotoxicity against human NCI-H226 cells assessed as cell growth at 10^-5 M after 48 hrs by SRB assay; type: functional; conditions: NCI-H226, 48 h, read-out: Activity
[3] = Cytotoxicity against human HCC2998 cells assessed as cell growth at 10^-5 M after 48 hrs by SRB assay; type: functional; conditions: HCC 2998, 48 h, read-out: Activity
[4] = Cytotoxicity against human SF268 cells assessed as cell growth at 10^-7 M after 48 hrs by SRB assay; type: functional; conditions: SF-268, 48 h, read-out: Activity
[5] = tested on: U-251; experiment: Cytotoxicity against human U251 cells assessed as cell growth at 10^-6 M after 48 hrs by SRB assay; type: functional; conditions: U-251, 48 h, read-out: Activity
[6] = Cytotoxicity against human SF539 cells assessed as cell growth at 10^-5 M after 48 hrs by SRB assay; type: functional; conditions: SF-539, 48 h, read-out: Activity
[7] = tested on: NCI-H23; experiment: Cytotoxicity against human NCI-H23 cells assessed as cell growth at 10^-7 M after 48 hrs by SRB assay; type: functional; conditions: NCI-H23, 48 h, read-out: Activity
[8] = tested on: NCI-H23; experiment: Cytotoxicity against human NCI-H23 cells assessed as cell growth at 10^-6 M after 48 hrs by SRB assay; type: functional; conditions: NCI-H23, 48 h, read-out: Activity
[9] = tested on: SK-MEL-28; experiment: Cytotoxicity against human SK-MEL-28 cells assessed as cell growth at 10^-7 M after 48 hrs by SRB assay; type: functional; conditions: SK-MEL-28, 48 h, read-out: Activity
[10] = tested on: HT-29; experiment: Cytotoxicity against human HT-29 cells assessed as cell growth at 10^-5 M after 48 hrs by SRB assay; type: functional; conditions: HT-29, 48 h, read-out: Activity
[11] = Cytotoxicity against human HOP62 cells assessed as cell growth at 10^-6 M after 48 hrs by SRB assay; type: functional; conditions: HOP-62, 48 h, read-out: Activity
[12] = tested on: A549; experiment: Cytotoxicity against human A549 cells assessed as cell growth at 10^-5 M after 48 hrs by SRB assay; type: functional; conditions: A549, 48 h, read-out: Activity
[13] = Cytotoxicity against human OVCAR8 cells assessed as cell growth at 10^-7 M after 48 hrs by SRB assay; type: functional; conditions: OVCAR-8, 48 h, read-out: Activity
[14] = tested on: SK-MEL-28; experiment: Cytotoxicity against human SK-MEL-28 cells assessed as cell growth at 10^-8 M after 48 hrs by SRB assay; type: functional; conditions: SK-MEL-28, 48 h, read-out: Activity
[15] = Cytotoxicity against human BT549 cells assessed as cell growth at 10^-8 M after 48 hrs by SRB assay; type: functional; conditions: BT-549, 48 h, read-out: Activity
[16] = tested on: NCI-H23; experiment: Cytotoxicity against human NCI-H23 cells assessed as cell growth at 10^-4 M after 48 hrs by SRB assay; type: functional; conditions: NCI-H23, 48 h, read-out: Activity
[17] = tested on: SN12C; experiment: Cytotoxicity against human SN12C cells assessed as cell growth at 10^-8 M after 48 hrs by SRB assay; type: functional; conditions: read-out: Activity
[18] = tested on: ACHN; experiment: Cytotoxicity against human ACHN cells assessed as cell growth at 10^-7 M after 48 hrs by SRB assay; type: functional; conditions: read-out: Activity
[19] = tested on: K562; experiment: Cytotoxicity against human K562 cells assessed as cell growth at 10^-6 M after 48 hrs by SRB assay; type: functional; conditions: K562, 48 h, read-out: Activity
[20] = Cytotoxicity against human IGROV1 cells assessed as cell growth at 10^-5 M after 48 hrs by SRB assay; type: functional; conditions: IGROV-1, 48 h, read-out: Activity
[21] = tested on: HT-29; experiment: Cytotoxicity against human HT-29 cells assessed as cell growth at 10^-4 M after 48 hrs by SRB assay; type: functional; conditions: HT-29, 48 h, read-out: Activity
[22] = Cytotoxicity against human SF295 cells assessed as cell growth at 10^-8 M after 48 hrs by SRB assay; type: functional; conditions: SF-295, 48 h, read-out: Activity
[23] = Cytotoxicity against human TK10 cells assessed as cell growth at 10^-7 M after 48 hrs by SRB assay; type: functional; conditions: TK-10, 48 h, read-out: Activity
[24] = Cytotoxicity against human COLO205 cells assessed as cell growth at 5 uM after 48 hrs by SRB assay; type: functional; conditions: COLO 205, 48 h, read-out: Activity
[25] = Metabolic stability in human hepatocytes assessed as remaining parent compound level at 10 uM after 3 hrs by LC/MS analysis; type: ADME, cell-based, Hepatocyte; conditions: read-out: Drug metabolism
[26] = tested on: HT-29; experiment: Cytotoxicity against human HT-29 cells assessed as cell growth at 5 uM after 48 hrs by SRB assay; type: functional; conditions: HT-29, 48 h, read-out: Activity
[27] = tested on: MDA-MB-435; experiment: Cytotoxicity against human MDA-MB-435 cells assessed as cell growth at 50 nM after 48 hrs by SRB assay; type: functional; conditions: MDA-MB-435, 48 h, read-out: Activity
[28] = Cytotoxicity against human OVCAR3 cells assessed as cell growth at 0.5 uM after 48 hrs by SRB assay; type: functional; conditions: OVCAR-3, 48 h, read-out: Activity
[29] = tested on: NCI-H23; experiment: Cytotoxicity against human NCI-H23 cells assessed as cell growth at 5 nM after 48 hrs by SRB assay; type: functional; conditions: NCI-H23, 48 h, read-out: Activity
[30] = Cytotoxicity against human Caki1 cells assessed as cell growth at 5 nM after 48 hrs by SRB assay; type: functional; conditions: CAKI-1, 48 h, read-out: Activity
[31] = Cytotoxicity against human DU145 cells assessed as cell growth at 50 uM after 48 hrs by SRB assay; type: functional; conditions: DU-145, 48 h, read-out: Activity
[32] = Cytotoxicity against human HOP92 cells assessed as cell growth at 5 nM after 48 hrs by SRB assay; type: functional; conditions: HOP-92, 48 h, read-out: Activity
[33] = Cytotoxicity against human DU145 cells assessed as cell growth at 50 nM after 48 hrs by SRB assay; type: functional; conditions: DU-145, 48 h, read-out: Activity
[34] = Cytotoxicity against human SNB75 cells assessed as cell growth at 0.5 uM after 48 hrs by SRB assay; type: functional; conditions: SNB-75, 48 h, read-out: Activity
[35] = Cytotoxicity against human BT549 cells assessed as cell growth at 50 uM after 48 hrs by SRB assay; type: functional; conditions: BT-549, 48 h, read-out: Activity
[36] = Cytotoxicity against human SKOV3 cells assessed as cell growth at 0.5 uM after 48 hrs by SRB assay; type: functional; conditions: SK-OV-3, 48 h, read-out: Activity
[37] = tested on: 786-0; experiment: Cytotoxicity against human 786-0 cells assessed as cell growth at 5 nM after 48 hrs by SRB assay; type: functional; conditions: 786-0, 48 h, read-out: Activity
[38] = tested on: SN12C; experiment: Cytotoxicity against human SN12C cells assessed as cell growth at 50 nM after 48 hrs by SRB assay; type: functional; conditions: read-out: Activity
[39] = Metabolic stability in human hepatocytes assessed as remaining parent compound level at 10 uM measured immediately after compound addition by LC/MS analysis; type: ADME, cell-based, Hepatocyte; conditions: read-out: Drug metabolism
[40] = Cytotoxicity against human COLO205 cells assessed as cell growth at 5 nM after 48 hrs by SRB assay; type: functional; conditions: COLO 205, 48 h, read-out: Activity
[41] = tested on: SN12C; experiment: Cytotoxicity against human SN12C cells assessed as cell growth at 5 nM after 48 hrs by SRB assay; type: functional; conditions: read-out: Activity
[42] = Cytotoxicity against human DU145 cells assessed as cell growth at 0.5 uM after 48 hrs by SRB assay; type: functional; conditions: DU-145, 48 h, read-out: Activity

C/C(=C(/c1ccc(O)cc1)c1ccc(OCCN2CCCC2)cc1)c1ccccc1
growth at 1 µM [1]: 106% | growth at 10 µM [2]: 56% | growth at 10 µM [3]: -25% | growth at 0.1 µM [4]: 94% | growth at 1 µM [5]: 95% | growth at 10 µM [6]: -67% | growth at 0.1 µM [7]: 94% | growth at 1 µM [8]: 86% | growth at 0.1 µM [9]: 97% | growth at 10 µM [10]: -66% | growth at 1 µM [11]: 98% | growth at 10 µM [12]: 4% | growth at 0.1 µM [13]: 105% | growth at 0.01 µM [14]: 90% | growth at 0.01 µM [15]: 96% | growth at 100 µM [16]: -83% | growth at 0.01 µM [17]: 101% | growth at 0.1 µM [18]: 97% | growth at 1 µM [19]: 81% | growth at 10 µM [20]: 41% | growth at 100 µM [21]: -91% | growth at 0.01 µM [22]: 87% | growth at 0.1 µM [23]: 94%

CCCCCCCCCC(=O)Oc1ccc(/C(=C(/C)c2ccccc2)c2ccc(OCCN3CCCC3)cc2)cc1
growth at 5 µM [24]: 79% | remaining at 3 h, 10 µM [25]: 36% | growth at 5 µM [26]: 58% | growth at 0.05 µM [27]: 92% | growth at 0.5 µM [28]: 86% | growth at 0.005 µM [29]: 92% | growth at 0.005 µM [30]: 88% | growth at 50 µM [31]: -99% | growth at 0.005 µM [32]: 86% | growth at 0.05 µM [33]: 98% | growth at 0.5 µM [34]: 68% | growth at 50 µM [35]: -76% | growth at 0.5 µM [36]: 83% | growth at 0.005 µM [37]: 102% | growth at 0.05 µM [38]: 101% | remaining at 0 h, 10 µM [39]: 29% | growth at 0.005 µM [40]: 104% | growth at 0.005 µM [41]: 102% | growth at 0.5 µM [42]: 81%
